{
  "source": "patent US6855549B1",
  "about": "“Methods and compositions for increasing the infectivity of gene transfer vectors” (The University of Iowa Research Foundation, priority 1998, dated 2005)",
  "key": {"lung": {"tested_on": "lung", "assay": "Lung morphology (H & E) 1 wk after EGTA/water instillation", "assay_type": "in vivo, rat", "protocol": "(§1) Preliminary studies were performed in rats to test the feasibility of using hypotonic solutions with EGTA to increase transepithelial permeability in vivo. 3 wk old rats were tracheotomized and a small caliber PE catheter inserted into the left lobe of the lung. 100 μl of 3 or 12 mM EGTA in water or PBS was mixed with […] fluorescent beads (a marker for viral particles) and instilled into the lungs. One hour later the animals were sacrificed and lung, tissue sections examined under fluorescence microscopy to determine if the fluorescent beads penetrated the epithelial layer. In the PBS control animal, fluorescent particles were only noted in the airway lunen. […] It also was asked if animals treated with EGTA/H2O developed changes in lung morphology. Animals received PBS or 12, 60, or 120 mM EGTA/water into the left lobe of the lung and 1 wk later were sacrificed and H & E stained lung tissues examined."}, "[1]": {"tested_on": "differentiated human airway epithelia", "assay": "Confocal (latex beads) and transmission electron microscopy of epithelial junctions after EGTA", "assay_type": "cell-based", "details": "1 hr", "protocol": "Ten micromoles of CMFDA (5-chloromethylfluorescein diacetate; Molecular Probes, Eugene, Oreg.) were added to the basal medium overnight to label cells (Knecht and Shelden, 1995; Stewart and Deacon, 1995). 100 nm latex beads (1×10^9 particles, Sigma, St. Louis, Mo.) were mixed with 12 mM hypotonic EGTA solution at a 1:1 ratio. The suspension was applied to the apical surface of KGF-stimulated epithelia for 1 hr. The epithelia were then washed with PBS 4-5 times for 20 min and then fixed in 4% paraformaldehyde/PBS for 20 min. The cell filter membranes were removed, mounted on slides, and examined under a confocal microscope (MRC 1024, Bio-Rad).\nTransmission electron microscopy was used to study cell morphology following treatment with a 6 mM EGTA in hypotonic buffer for 1 hr. Differentiated human airway epithelia were fixed in 2.5% glutaraldehyde (0.1 M sodium cacodylate buffer, pH 7.4) overnight at 4° C., and then post-fixed with 1% osmium tetroxide for 1 hr. Following serial alcohol dehydration, samples were embedded in Eponate 12 (Ted Pella, Inc., Redding, Calif.). Sectioning and post-staining were performed using routine methods (see “Electron Microscopy: Principles and Techniques for Biologists,” Jones and Bartlett Publishers, Sudbury, Mass., 1998). Samples were examined under a Hitachi H-7000 transmission electron microscope. […]"}, "lung epithelial layer": {"tested_on": "lung epithelial layer", "assay": "Fluorescent bead penetration of lung epithelium after EGTA instillation", "assay_type": "in vivo, rat", "details": "3 or 12 mM EGTA, 100 μl into left lobe, one hour", "protocol": "as §1"}, "human nasal epithelium": {"tested_on": "human nasal epithelium", "assay": "Nasal transepithelial voltage (Vt) in human volunteers", "assay_type": "in vivo", "protocol": "Human studies. The Vt across the nasal epithelium was measured in 6 volunteers using previously described methods (Zabner et al., 1996). The protocol followed was identical to that described above for the rabbit studies. […] The catheter was then left in that position for the entire recording period. The solutions were administered through the second lumen in the following order: 1) Normal saline for 5 min; 2) Sterile water with 10 mM EGTA or 10 mM EDTA for 10 min; 3) Nommal saline with 10 mM EGTA or 10 mM EDTA for 5 min; and 4) Normal saline with 10 mM, EGTA or 10 mM EDTA plus […] amiloride for 5 min. Measurements of Vt were read by two investigators who were blinded and wvere checked by a third investigator if there was a discrepancy of more than 2 mV. Disruption of epithelial junctions was assessed by detecting a fall in nasal Vt after perfusion with the chelator, and by the loss of amiloride-sensitive Vt after perfusion with the. chelator solution."}},
  "note": "Entries after “also recorded” stand apart in the source; their conditions may differ.",
  "data": [
    {"smiles": "O=C(O)CN(CCOCCOCCN(CC(=O)O)CC(=O)O)CC(=O)O", "note": "[EGTA]", "values": [
      {"measurement": "lung morphology", "setting": "lung; 120 mM EGTA", "value": "thickening of the interstitial space was noted"},
      {"measurement": "lung morphology", "setting": "lung; 12 or 60 mM EGTA/water", "value": "morphology similar to the control"},
      {"measurement": "width of intercellular gap (TEM)", "setting": "[1]; 6 mM EGTA in hypotonic buffer", "value": "~500", "unit": "nm"},
      {"measurement": "intercellular spaces and deposition of 100 nm beads", "setting": "[1]; hypotonic 6 mM EGTA, apical", "value": "caused a widening of the intercellular spaces and facilitated deposition of beads in the paracellular space"},
      {"measurement": "penetration of 100 nM fluorescent beads into epithelial layer", "setting": "lung epithelial layer", "value": "beads were seen throughout the cell layer and close to the basement membrane"},
      {"measurement": "adverse effects of nasal perfusion", "setting": "human nasal epithelium; 10 mM EGTA, volunteers", "value": "did not experience any adverse effects"},
      {"measurement": "nasal Vt", "setting": "human nasal epithelium; H2O/chelator then chelator in saline, 10 mM", "value": "there was a significant decrease in the Vt"},
      {"measurement": "amiloride-sensitive nasal Vt after EGTA treatment", "setting": "human nasal epithelium; n=6", "value": "EGTA treatment abolished the amiloride-sensitive Vt; also recorded: essentially no amiloride-sensitive Vt remained"}
    ]}
  ]
}
